Data reported in patent publication US20120184016A1, “NOVEL PROTEIN AND GENE THAT CODES THEREFOR” (priority 2009, published 2012).

Key:
[1] = system: recombinant β-galactoside-α2,6-sialyltransferase N1C0; test: Sugar acceptor substrate specificity (sialic acid transfer to monosaccharides/disaccharides); format: biochemical, Photobacterium leiognathi strain JT-SHIZ-119; design: Relative activity: concentration or dose not given beside the values; details: for Transferred NeuAc / transfer of sialic acid to the sugar acceptor substrate (in words): purified enzyme; for Transferred NeuAc: substance used as sugar acceptor substrate; for transfer of sialic acid to the sugar acceptor substrate (in words): among 11 monosaccharides and disaccharides; for Relative activity: sialyltransferase activity represented by 100 for lactose
Protocol: Sialyltransferase activity was measured by a method described in J. Biochem., 120, 104-110 (1996) (which is hereby incorporated by reference in its entirety). Specifically, the enzyme reaction was performed using a reaction solution (30 μL) containing CMP-NeuAc (70 nmol, containing about 20000 cpm CMP-NeuAc in which NeuAc was labeled with ^14C; NeuAc represents N-acetylneuraminic acid) as a sugar donor substrate, lactose (1.25 μmol) as a sugar acceptor substrate, NaCl added to give a concentration of 0.5 M, and the enzyme prepared as described above. The enzyme reaction was carried out at 25° C. for about 10 to 180 minutes. After completion of the reaction, 1.97 mL of 5 mM phosphate buffer (pH 6.8) was added to the reaction solution, which was then applied to a Dowex 1×8 (PO4^3− form, 0.2×2 cm, manufactured by Bio-Rad Laboratories, Inc.) column. The radioactivity contained in the reaction product contained in the eluate (0 to 2 mL) from this column, that is, sialyllactose, was measured to calculate the enzyme activity. One enzyme unit (1 U) is defined as the amount of enzyme required to transfer one micromole of sialic acid per minute.
Sialic acid transfer reaction was performed using the purified enzyme, JT-SHIZ-119-derived recombinant β-galactoside-α2,6-sialyltransferase SHIZ119-N1C0, prepared in Example 3 and using various monosaccharides/disaccharides as sugar acceptor substrates. The reaction was performed by the method described in J. Biochem., 120, 104-110 (1996).
The monosaccharides used as sugar acceptor substrates were the following eight types: methyl-α-D-galactopyranoside (Gal-α-OMe), methyl-β-D-galactopyranoside (Gal-β-OMe), methyl-α-D-glucopyranoside (Glc-α-OMe), methyl-β-D-glucopyranoside (Glc-β-OMe), methyl-α-D-mannopyranoside (Man-α-OMe), methyl-β-D-mannopyranoside (Man-(3-OMe), N-acetylgalactosamine (GalNAc), and N-acetylglucosamine (GlcNAc). The disaccharides used were the following three types: lactose (Gal-β1,4-Glc), N-acetyllactosamine (Gal-β1,4-GlcNAc), and Gal-β1,3-GalNAc.
Note that the relative activity for each acceptor substrate is based on the sialyltransferase activity represented by 100 for lactose.

[2] = system: JT-SHIZ-119-derived recombinant β-galactoside-α2,6-sialyltransferase N1C0 (neuraminidase activity); test: Substrate specificity of neuraminidase activity with PA-sugar chains, HPLC; format: biochemical, Photobacterium leiognathi strain JT-SHIZ-119; details: 30° C. for 18 hours; FIGS. 3-5, 3-7, 3-8
Protocol: The substrate specificity of neuraminidase, that is, the linkage mode of sialic acid to a sugar chain that is cleaved by the neuraminidase can be determined by, but not limited to, a method using a pyridylaminated sugar chain. More specifically, the enzyme reaction by neuraminidase is performed using PA sugar chains in which sialic acid is linked by α2,3-linkage, α2,6-linkage, or α2,8-linkage (for example, pyridylaminated sugar chains such as PA-Sugar Chain 029, PA-Sugar Chain 023, and PA-Sugar Chain 034 available from Takara Bio Inc.). The reaction product is analyzed by high performance liquid chromatography, and the amount of sialic acid that was cleaved is calculated from the retention time and peak area of the reaction product.
To reveal the specificity of the neuraminidase activity of the JT-SHIZ-119-derived recombinant β-galactoside-α2,6-sialyltransferase N1C0, reactions using a PA-sugar chain shown in Table 4, to which sialic acid is linked via α2,3-, α2,6-, or α2,8-linkage (PA-Sugar Chain 029, PA-Sugar Chain 023, or PA-Sugar Chain 034, manufactured by Takara Bio Inc.) as a substrate were performed.
To a purified enzyme solution of the JT-SHIZ-119-derived recombinant β-galactoside-α2,6-sialyltransferase N1C0 (equivalent to 0.6 U as sialyltransferase activity), 1.5 μL of a 10 pmol/μL PA-sugar chain was added, followed by reaction at 30° C. for 18 hours. After completion of the reaction, the reaction solution was treated at 100° C. for 2 minutes to inactivate the enzyme, followed by HPLC to analyze the reaction product. In the case of using PA-Sugar Chain 023 as the substrate, the pyridylaminated sugar chain was eluted and analyzed under the same conditions as those in Example 1. In the case of using PA-Sugar Chain 029 or PA-Sugar Chain 034 as the substrate, the elution was performed using eluent A (100 mM acetate-triethylamine, pH 5.0) and eluent B (100 mM acetate-triethylamine containing 0.5% n-butanol, pH 5.0) with a linear gradient of 0 to 100% eluent B (0 to 35 min), 100% eluent B (35 to 50 min), and then a linear gradient of 100% to 30% eluent B (51 to 75 min). The analysis was performed under the conditions of Example 1. FIGS. 3-2 to 3-8 show the results.

| Molecule | Transferred NeuAc [1] [nmol/min] | HPLC peak after reaction of the PA-sugar chain with the purified enzyme solution [2] | transfer of sialic acid to the sugar acceptor substrate (in words) [1] | Relative activity [1] [%] |
| --- | --- | --- | --- | --- |
| CC(=O)N[C@H]1C(O)O[C@H](CO)[C@@H](O)[C@@H]1O (some centres unmarked) [N-Acetylglucosamine, N-acetylglucosamine] | <0.01 | – | – | – |
| N-Acetyllactosamine type, disialylated biantennary [PA-Sugar Chain 023] | – | corresponds to PA-Sugar Chain 001 | – | – |
| CC(=O)N[C@H]1C(O)O[C@H](CO)[C@H](O)[C@@H]1O (some centres unmarked) [N-Acetylgalactosamine, N-acetylgalactosamine] | 0.29 | – | efficiently transferred | 10 |
| CO[C@@H]1O[C@H](CO)[C@@H](O)[C@H](O)[C@H]1O [Methyl-β-D-glucopyranoside, methyl-β-D-glucopyranoside] | <0.01 | – | – | – |
| CO[C@H]1O[C@H](CO)[C@H](O)[C@H](O)[C@H]1O [Methyl-α-D-galactopyranoside, methyl-α-D-galactopyranoside] | 0.04 | – | – | 1 |
| CO[C@H]1O[C@H](CO)[C@@H](O)[C@H](O)[C@H]1O [Methyl-α-D-glucopyranoside, methyl-α-D-glucopyranoside] | <0.01 | – | – | – |
| CC(=O)N[C@H]1C(O)O[C@H](CO)[C@H](O)[C@@H]1O[C@@H]1O[C@H](CO)[C@H](O)[C@H](O)[C@H]1O (stereo partly drawn) [Gal-β1,3-GalNAc] | 1.68 | – | efficiently transferred | 58 |
| OC[C@H]1O[C@@H](O[C@H]2[C@H](O)[C@@H](O)C(O)O[C@@H]2CO)[C@H](O)[C@@H](O)[C@H]1O (some centres unmarked) [Lactose, lactose] | 2.88 | – | efficiently transferred | 100 |
| CC(=O)NC1C(O)CC(OC2C(O)C(CO)OC(OC(C(O)CO)C(O)C(O)CNc3ccccn3)C2O)(C(=O)O)OC1C(O)C(O)CO (centres unmarked) [PA-Sugar Chain 029, Neu5Acα2-3Galβ1-4Glc-PA] | – | corresponds to PA-Sugar Chain 029 | – | – |
| CO[C@@H]1O[C@H](CO)[C@@H](O)[C@H](O)[C@@H]1O [Methyl-β-D-mannopyranoside, methyl-β-D-mannopyranoside] | 0.04 | – | – | 1 |
| GD1b-hexasaccharide [PA-Sugar Chain 034] | – | corresponds to PA-Sugar Chain 034 | – | – |
| CO[C@H]1O[C@H](CO)[C@@H](O)[C@H](O)[C@@H]1O [Methyl-α-D-mannopyranoside, methyl-α-D-mannopyranoside] | <0.01 | – | – | – |
| CC(=O)N[C@H]1C(O)O[C@H](CO)[C@@H](O[C@@H]2O[C@H](CO)[C@H](O)[C@H](O)[C@H]2O)[C@@H]1O (some centres unmarked) [N-Acetyllactosamine, N-acetyllactosamine] | 2.96 | – | efficiently transferred | 103 |
| CO[C@@H]1O[C@H](CO)[C@H](O)[C@H](O)[C@H]1O [Methyl-β-D-galactopyranoside, methyl-β-D-galactopyranoside] | 1.1 | – | efficiently transferred | 38 |
